From patent publication US5994375A, “Benzamidine derivatives substituted by amino acid and hydroxy acid derivatives and their use as anti-coagulants” (Berlex Laboratories, Inc., priority 1996, dated 1999)
Square brackets hold non-standard residues; d marks the D form. Peptide text beside a SMILES is read from it. * marks the point of attachment. pNA = O=[N+]([O-])c1ccc(N*)cc1

Tests used:
[1] = target: T1, Human tissue plasminogen activator (tPA) (Two chains, Sigma) (Homo sapiens, UniProt P00750); assay: In vitro chromogenic assay for tissue plasminogen activator (cleavage of peptide p-nitroanilide S2288); assay type: biochemical; settings: substrate concentration stated equal to its Km under the assay conditions; 10 nM tPA, pH 7.5, ambient temperature
T1 construct: purchased Sigma
Experimental: (§1) The activities were determined as an initial rate of cleavage of the peptide p-nitroanilide by the enzyme. The cleavage product, p-nitroaniline, absorbs at 405 nm with a molar extinction coefficient of 9920 M^-1 cm^-1.
(§2) 50 mM TrisHCl, 150 mM NaCl, 2.5 mM CaCl2, and 0.1% polyethylene glycol 6000, pH 7.5.
3. Human tissue plasminogen activator (tPA) (Two chains, Sigma) stock solution: 1 mg/mL, stored at -80° C. (working solution (2×): 1361 ng/mL in assay buffer, prepare prior to use).
3. S2288 (tPA assay) stock solution: 10 mM in dH2 O, stored at 4° C. (working solution (4×): 1484 μM in assay buffer).
(§3) Assays were performed in 96-well microtiter plates in a total volume of 200 μl. […] Concentrations of the standard inhibitor compound in the assay were from 5 μM to 0.021 μM in 1 to 3 dilution. Concentration of the test compounds in the assay typically were from 10 μM to 0.041 μM in 1 to 3 dilution. For potent test compounds, the concentrations used in the factor Xa assay were further diluted 100 fold (100 nM to […]) or 1000 fold (10 nM to 0.041 nM). All substrate concentrations used are equal to their Km values under the present assay conditions. Assays were performed at ambient temperature. […]
(§4) The enzyme kinetics were measured at 405 nm at 10 seconds intervals for five minutes in a THERMOmax plate reader at ambient temperature.

Human thrombin = target: T2, Human thrombin (Homo sapiens, UniProt P00734); assay: In vitro chromogenic assay for thrombin (cleavage of peptide p-nitroanilide S2302); assay type: biochemical; settings: substrate concentration stated equal to its Km under the assay conditions; 20 nM thrombin, pH 7.5, ambient temperature
T2 construct: Human thrombin stock solution; purchased Enzyme Research Lab
Experimental: as §1, §2
2. Human thrombin stock solution: Stored at -80° C. (working solution (2×): 1200 ng/mL or 40 nM in assay buffer, prepare prior to use).
2. S2302 (Thrombin assay) stock solution: 10 mM in dH2 O, stored at 4° C. (working solution (4×): 1200 μM in assay buffer).
as §3, with “nM).” for “nM). All substrate concentrations used are equal to their Km values under the present assay conditions. Assays were performed at ambient temperature.”
as §4
Enzyme rates were calculated as mOD/min based on the first two minutes readings. The IC50 values were determined by fitting the data to the log-logit equation (linear) or the Morrison equation (non-linear) with an EXCEL spread-sheet. […]

T1 sequence (P00750 311-562 limits assumed): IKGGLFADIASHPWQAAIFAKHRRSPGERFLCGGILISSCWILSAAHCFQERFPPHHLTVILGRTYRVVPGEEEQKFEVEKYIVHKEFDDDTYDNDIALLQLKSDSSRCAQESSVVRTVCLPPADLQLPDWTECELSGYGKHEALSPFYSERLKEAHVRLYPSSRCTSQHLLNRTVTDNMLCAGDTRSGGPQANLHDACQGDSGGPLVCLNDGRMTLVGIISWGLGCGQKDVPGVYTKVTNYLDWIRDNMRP
T1 sequence (P00750 36-310 partner limits assumed): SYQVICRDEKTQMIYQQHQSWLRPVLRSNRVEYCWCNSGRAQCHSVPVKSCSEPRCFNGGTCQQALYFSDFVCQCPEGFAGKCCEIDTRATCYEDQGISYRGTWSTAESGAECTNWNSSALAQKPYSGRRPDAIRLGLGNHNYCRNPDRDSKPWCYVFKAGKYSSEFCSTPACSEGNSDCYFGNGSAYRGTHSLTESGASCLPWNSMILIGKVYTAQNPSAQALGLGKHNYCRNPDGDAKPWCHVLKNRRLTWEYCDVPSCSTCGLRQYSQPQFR

Km [1] [µM] | Km (Human thrombin) [µM] | SMILES
371 |  | CC[C@@H](C)[C@@H](N)C(=O)N1CCC[C@H]1C(=O)N[C@@H](CCCN=C(N)N)C(=O)Nc1ccc([N+](=O)[O-])cc1 [Example S2288] (H-[dI]-Pro-Arg-pNA)
 | 300 | N=C(N)NCCC[C@H](NC(=O)[C@H](Cc1ccccc1)NC(=O)[C@H]1CCCN1)C(=O)Nc1ccc([N+](=O)[O-])cc1 [Example S2302] (H-[dP]-Phe-Arg-pNA)
